Molecules are shown by their SMILES.

The subject of experiment [1] is HL-60. The experiment can be described thus: Cytotoxicity against human HL60 cells assessed as reduction in cell viability after 48 hrs by MTS assay. Conditions: HL-60, 48 h. The experiment is classed as functional, cell-based. In general terms: Tetrazolium dyes change colour on reduction, which living cells bring about.
The test system of experiment [2] is BEAS-2B. The experiment can be described thus: Cytotoxicity against human BEAS2B cells assessed as reduction in cell viability after 48 hrs by MTS assay. The format is cell-based.
Experiment [3] concerns MCF7. The experiment can be described thus: Cytotoxicity against human MCF7 cells assessed as reduction in cell viability after 48 hrs by MTS assay. Conditions: MCF7, 48 h. The format is functional, cell-based.
Experiment [4] has as its system A549. The experiment can be described thus: Cytotoxicity against human A549 cells assessed as reduction in cell viability after 48 hrs by MTS assay. The format is functional, cell-based. Conditions: A549, 48 h.
Experiment [5] deals with SW480. The experiment can be described thus: Cytotoxicity against human SW480 cells assessed as reduction in cell viability after 48 hrs by MTS assay. The format is functional, cell-based. Conditions: SW480, 48 h.
The test system of experiment [6] is SMMC-7721. The experiment can be described thus: Cytotoxicity against human SMMC-7721 cells assessed as reduction in cell viability after 48 hrs by MTS assay. The experiment is classed as functional, cell-based. As to conditions: SMMC-7721, 48 h.

As for `CC(C)c1cc(O)c2c(c1O)C(=O)C[C@H]1C(C)(C)CCC[C@]21C`, the IC50 in experiment [1], in experiment [2], in experiment [3], in experiment [4], in experiment [5] and in experiment [6] was above 10 µM each time.

As for `CC(C)C1=C(O)C(=O)C2=C(C1=O)[C@H](O)[C@H]1C(C)(C)CCC[C@]21C`, the half-maximal inhibitory concentration (IC50) in experiment [1], in experiment [2], in experiment [3], in experiment [4], in experiment [5] and in experiment [6] was above 10 µM throughout.

Consider `COc1c(O)c2c(c(C=O)c1C(C)C)[C@H](O)[C@H]1C(C)(C)CCC[C@]21C`, for which the IC50 in experiment [1], in experiment [2], in experiment [3], in experiment [4], in experiment [5] and in experiment [6] was above 10 µM in each case.

Consider `CC(C)C1=C(O)C(=O)C2=C(C=C[C@H]3C(C)(C)CCC[C@]3(C)O2)C1=O`, for which the IC50 in experiment [1], in experiment [2], in experiment [3], in experiment [4], in experiment [5] and in experiment [6] was above 10 µM in each case.

For `CC(C)c1cc2c(cc1O)C=C[C@H]1C(C)(C)CCC[C@]21C`, the half-maximal inhibitory concentration (IC50) in experiment [1], in experiment [2], in experiment [3], in experiment [4], in experiment [5] and in experiment [6] was above 10 µM in each case.

As for `CC(C)c1cc(C=O)c2c(c1O)OC(O)[C@H]1C(C)(C)CCC[C@]21C` (some centres undefined), the IC50 in experiment [1], in experiment [2], in experiment [3], in experiment [4], in experiment [5] and in experiment [6] was above 10 µM each time.

Regarding `COc1c(C(C)C)cc2c(c1O)[C@@]1(C)CCCC(C)(C)[C@@H]1CC2=O` [CRYPTOJAPONOL], the IC50 in experiment [1], in experiment [2], in experiment [3], in experiment [4], in experiment [5] and in experiment [6] was above 10 µM throughout.

As for `CC(C)c1cc2c(cc1O)C(=O)C[C@H]1C(C)(C)CCC[C@]21C`, the IC50 in experiment [1], in experiment [2], in experiment [3], in experiment [4], in experiment [5] and in experiment [6] was above 10 µM each time.

On to `CC(C)c1cc2c(cc1O)[C@@]1(C)CC[C@H](O)C(C)(C)[C@@H]1CC2` [HINOKIOL], for which the IC50 in experiment [1], in experiment [2], in experiment [3], in experiment [4], in experiment [5] and in experiment [6] was above 10 µM each time.

As to `CC(C)c1cc2c(cc1O)[C@@]1(C)C[C@H](O)CC(C)(C)[C@@H]1CC2`, the IC50 in experiment [1], in experiment [2], in experiment [3], in experiment [4], in experiment [5] and in experiment [6] was above 10 µM throughout.

Regarding `CC(C)c1cc2c(c(O)c1O)[C@@]1(C)CCC[C@](C)(CO)C1=C(O)C2=O`, the IC50 in experiment [1], in experiment [2], in experiment [3], in experiment [4], in experiment [5] and in experiment [6] was above 10 µM each time.

For the molecule `CO[C@@H]1C2=C(C(=O)C(O)=C(C(C)C)C2=O)[C@@]2(C)CCCC(C)(C)[C@H]12`, the IC50 in experiment [1], in experiment [2], in experiment [3], in experiment [4], in experiment [5] and in experiment [6] was above 10 µM in each case.

`CC(C)C1=C(O)C(=O)C2=C(C=C3C(C)(C)CCC[C@@]32C)C1=O`: the half-inhibitory concentration (IC50) in experiment [1], in experiment [2], in experiment [3], in experiment [4], in experiment [5] and in experiment [6] was above 10 µM in each case.

On to `CC(C)c1cc2c(c(O)c1O)[C@@]1(C)CCCC(C)(C)[C@@H]1CC2=O` [DEMETHYLCRYPTOJAPONOL], for which the half-inhibitory concentration (IC50) in experiment [1], in experiment [2], in experiment [3], in experiment [4], in experiment [5] and in experiment [6] was above 10 µM in each case.

For the molecule `CC(C)C1=C[C@]23CC[C@@H]4C(=CCCC4(C)C)[C@H]2CC(=O)[C@]3(O)C1=O`, the half-inhibitory concentration (IC50) in experiment [1], in experiment [2], in experiment [3], in experiment [4], in experiment [5] and in experiment [6] was above 10 µM in each case.

With `CC(C)c1cc(C(=O)O)c2c(c1O)O[C@]1(O)C(C)(C)[C@@H](O)CC[C@]21C`, the IC50 in experiment [1], in experiment [2], in experiment [3], in experiment [4], in experiment [5] and in experiment [6] was above 10 µM each time.

For `CC(C)c1c(O)c(C=O)c2c(c1O)OC(O)[C@H]1C(C)(C)CCC[C@]21C` (some centres undefined), the IC50 in experiment [1], in experiment [2], in experiment [3], in experiment [4], in experiment [5] and in experiment [6] was above 10 µM throughout.

As to `CC(C)c1cc2c(c(O)c1O)[C@@]1(C)CCCC(C)(C)[C@@H]1[C@H](O)C2=O`, the half-inhibitory concentration (IC50) in experiment [1], in experiment [2], in experiment [3], in experiment [4], in experiment [5] and in experiment [6] was above 10 µM throughout.

In the case of `Cc1ccc2cc(C(C)C)c(O)c3c2c1C(=O)CCC(C)(C)O3`, the IC50 in experiment [1], in experiment [2], in experiment [3], in experiment [4], in experiment [5] and in experiment [6] was above 10 µM throughout.

On to `CC(C)c1cc2c(c(O)c1O)[C@@]1(C)CCCC(C)(C)C1=C(O)C2=O` [14-DEOXYCOLEON U], for which the IC50 – broadly, the point on the concentration scale where inhibition reaches its midpoint – is 6.2 µM in experiment [1]; above 10 µM in experiment [2]; 5.6 µM in experiment [3]; 8.4 µM in experiment [4]; above 10 µM in experiment [5]; 9.2 µM in experiment [6].

On to `CC(C)c1c(O)c(O)c2c(c1C=O)[C@H](O)[C@H]1C(C)(C)CCC[C@]21C`, for which the 50% inhibitory concentration (IC50) in experiment [1], in experiment [2], in experiment [3], in experiment [4], in experiment [5] and in experiment [6] was above 10 µM each time.

Turning to `CC(C)c1cc2c(cc1O)[C@@]1(C)CCCC(C)(C)[C@@H]1CC2=O` [SUGIOL], the IC50 in experiment [1], in experiment [2], in experiment [3], in experiment [4], in experiment [5] and in experiment [6] was above 10 µM throughout.

Consider `CC(C)c1cc(C(=O)O)c2c(c1O)O[C@]1(O)[C@@](C)(CO)CCC[C@]21C`, for which the IC50 in experiment [1], in experiment [2], in experiment [3], in experiment [4], in experiment [5] and in experiment [6] was above 10 µM throughout.

For `CC(C)c1cc2c(c(O)c1O)[C@@]1(C)CCCC(C)(C)C1=CC2=O` [SALVINOLONE], the half-maximal inhibitory concentration (IC50) in experiment [1], in experiment [2], in experiment [3], in experiment [4], in experiment [5] and in experiment [6] was above 10 µM throughout.

Source of the values: ChEMBL document CHEMBL4811267, “Structurally Diverse Diterpenoids from the Roots of Salvia deserta Based on Nine Different Skeletal Types” (J Nat Prod, 2021).
